Measured values reported in paper PMC10951303, “Macroscopic inhibition of DNA damage repair pathways by targeting AP-2α with LEI110 eradicates hepatocellular carcinoma” (Communications Biology, 2024).

Molecular target: T1, AP-2α (TFAP2A) (Homo sapiens, UniProt P05549)
T1 construct: endogenous full-length protein in intact HEP3B cells; western blot read-out
Experiment: cellular thermal shift assay (CETSA), western blot
Assay type: cell-based
Details: HEP3B cells treated with LEI110 or DMSO for 1 h, then heated 3 min at increasing temperatures

T1 sequence (P05549 whole entry): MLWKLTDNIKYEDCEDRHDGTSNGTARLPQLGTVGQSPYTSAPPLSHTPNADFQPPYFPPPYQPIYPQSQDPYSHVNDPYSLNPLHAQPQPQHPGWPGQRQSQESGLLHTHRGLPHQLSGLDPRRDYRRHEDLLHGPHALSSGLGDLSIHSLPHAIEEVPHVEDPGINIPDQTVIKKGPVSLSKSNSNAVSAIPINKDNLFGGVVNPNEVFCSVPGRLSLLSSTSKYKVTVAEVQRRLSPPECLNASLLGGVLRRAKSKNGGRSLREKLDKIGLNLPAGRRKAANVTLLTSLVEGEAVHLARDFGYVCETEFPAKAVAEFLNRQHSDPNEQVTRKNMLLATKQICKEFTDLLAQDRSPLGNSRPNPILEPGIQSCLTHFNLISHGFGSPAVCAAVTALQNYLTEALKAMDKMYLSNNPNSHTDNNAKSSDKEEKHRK

Structure (SMILES): O=C(CCCc1ccccc1)C(=O)NCCc1ccc(Oc2ccc(C(F)(F)F)cn2)cc1 [LEI110]
- cellular thermal shift assay (CETSA), western blot: the stabilization of AP-2α by LEI110 was observed in the CETSA
